Laboratory results taken from US20040147788A1, “Stilbene derivatives and their use as aryl hydrocarbon receptor antagonistic ligands” (priority 2002, published 2004).
Several values for one entry are separate records, joined by “and”; a condition that tells them apart may be missing. Equal values may be shown once.

Legend:
[1] = molecular target: T1, AhR (Homo sapiens, UniProt P35869); assay: AhR-mediated transactivation, DRE-TK-CAT stable cell line 47DRE treated with TCDD; assay type: cell-based; design: endogenous in cells; key to AhR T.A. (transcriptional activity): Ago: agonist; N.M.: not measurable; details: DRE-TKCAT reporter; for AhR TA (transcriptional activity): cis-stilbenes, 10^−9 M TCDD challenged by 10−7 M compound; for AhR T.A. (transcriptional activity): trans-stilbenes, 10^−9 M TCDD challenged by 10^−7 M compound
T1 sequence (P35869 11-848): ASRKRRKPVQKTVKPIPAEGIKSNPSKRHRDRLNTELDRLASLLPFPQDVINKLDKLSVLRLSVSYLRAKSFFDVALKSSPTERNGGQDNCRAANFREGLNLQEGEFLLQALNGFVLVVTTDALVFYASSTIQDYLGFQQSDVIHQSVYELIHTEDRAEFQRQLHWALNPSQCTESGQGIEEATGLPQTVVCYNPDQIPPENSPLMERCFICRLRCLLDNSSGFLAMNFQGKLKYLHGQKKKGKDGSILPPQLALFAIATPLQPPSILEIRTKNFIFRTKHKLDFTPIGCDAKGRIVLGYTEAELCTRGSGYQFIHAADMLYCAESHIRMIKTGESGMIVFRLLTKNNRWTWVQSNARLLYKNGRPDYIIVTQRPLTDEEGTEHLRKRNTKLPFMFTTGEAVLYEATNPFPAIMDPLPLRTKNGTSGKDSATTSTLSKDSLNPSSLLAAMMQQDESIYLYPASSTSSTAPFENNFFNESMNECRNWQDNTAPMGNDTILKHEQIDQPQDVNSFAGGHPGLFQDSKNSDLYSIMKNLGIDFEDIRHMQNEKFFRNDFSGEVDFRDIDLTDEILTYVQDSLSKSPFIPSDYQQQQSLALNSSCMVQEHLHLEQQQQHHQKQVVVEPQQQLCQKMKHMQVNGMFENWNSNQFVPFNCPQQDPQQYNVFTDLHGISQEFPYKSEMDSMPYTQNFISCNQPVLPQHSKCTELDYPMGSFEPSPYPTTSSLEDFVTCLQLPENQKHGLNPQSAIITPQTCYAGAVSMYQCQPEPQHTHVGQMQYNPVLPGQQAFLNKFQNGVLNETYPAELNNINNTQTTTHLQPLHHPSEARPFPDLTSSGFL
Protocol: Cis and Trans isomers were then tested for transcriptional modulatory activity in a DRE-TK-CAT containing stable cell line treated with TCDD.
mp° C.: melting point. Ago: agonist. N.M.: not measurable. RBA: relative binding affinity of the compound for the given receptor (AhR or ER).
The stable cell line 47DRE bearing the TCDD-responsive CAT construct was previously described (3). It was routinely grown in DMEM medium supplemented with 10% fetal calf serum (FCS), 4.5 g/L glucose, and 0.6 units/ml (10^−6 M) insulin. Unless stated otherwise, cells were established 24 hours before any experiment in a modified medium (stripped condition) containing 5% Dextran-charcoal-treated newbom calf serum instead of 10% FCS. All other components remained unchanged. […] All chemicals applied to the cells were diluted in ethanol, control cells received ethanol alone. CAT expression was assayed on whole cell extracts (100 μg protein) with a CAT-ELISA assay (Roche, Meylan, France) according to supplier's specifications. Experiments were done in triplicate.

[2] = molecular target: T2, ER (Homo sapiens, UniProt P03372); assay: ER-mediated transactivation, ERE-driven Luciferase reporter stable cell line (MCF-7-Luc); assay type: cell-based; details: for ER TA (transcriptional activity): cis-stilbenes; for ER T.A. (transcriptional activity): trans-stilbenes
T2 construct: stably transfecting MCF-7 cells with the ERE-globin-tk-luc-SV-Neo plasmid; endogenous in cells; host or cells: MCF-7-Luc (MCF-7 stably transfected with ERE-globin-tk-luc-SV-Neo)
T2 sequence (P03372 1-595): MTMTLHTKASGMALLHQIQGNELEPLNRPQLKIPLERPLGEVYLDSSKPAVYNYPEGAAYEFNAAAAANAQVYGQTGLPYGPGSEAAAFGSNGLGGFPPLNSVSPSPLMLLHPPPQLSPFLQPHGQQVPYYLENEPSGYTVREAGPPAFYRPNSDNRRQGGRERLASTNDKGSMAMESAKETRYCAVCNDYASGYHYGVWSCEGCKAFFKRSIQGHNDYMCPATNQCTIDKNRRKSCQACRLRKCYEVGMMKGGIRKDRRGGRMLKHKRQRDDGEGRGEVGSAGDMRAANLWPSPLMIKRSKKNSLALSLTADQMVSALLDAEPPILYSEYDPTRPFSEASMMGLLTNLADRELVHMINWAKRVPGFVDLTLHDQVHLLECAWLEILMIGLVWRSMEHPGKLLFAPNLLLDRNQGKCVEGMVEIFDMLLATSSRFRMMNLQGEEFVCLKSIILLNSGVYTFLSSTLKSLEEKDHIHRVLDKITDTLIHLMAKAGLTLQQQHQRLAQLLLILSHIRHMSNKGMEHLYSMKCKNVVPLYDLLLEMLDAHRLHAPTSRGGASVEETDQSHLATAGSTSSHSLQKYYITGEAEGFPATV
Protocol: The human adenocarcinoma breast cell line MCF-7 was obtained from the American Tissue Culture Collection (Rockville, USA). The cells were established by stably transfecting MCF-7 cells with the ERE-globin-tk-luc-SV-Neo plasmid and thus expressed luciferase in an estrogen dependent manner MCF-7-Luc. […] Cells were incubated at 37° C. in a humidified 5% CO2 incubator. For experiments, cells were grown for 5 days in phenol red-free medium, containing 5% dextran-coated charcoal treated FCS (DCC-FCS). Medium was changed after 2 days. At day 5, cells were treated or not with compounds. Compounds were dissolved in ethanol.
For each condition, 15.103 cells were seeded per well in 12-well plates and treated, as described above, during 16 hours in a final volume of 0.5 mL. At the end of the treatment, cells were washed with PBS and lysed in 150 μl of lysis buffer (Promega, Charbonnieres, France). Luciferase activity was measured using the luciferase assay reagent (Promega), according to the manufacturer's instructions. Protein concentrations were measured using Bradford technique, to normalize the luciferase activity data. For each condition, average luciferase activity was calculated from the data of 3 independent wells.

SMILES	AhR TA (transcriptional activity) [1]	ER TA (transcriptional activity) [2]	AhR T.A. (transcriptional activity) [1]	ER T.A. (transcriptional activity) [2]	melting point
CCOc1ccc(/C=C\c2cc(OC)cc(OC)c2)cc1 [Compound 5g, (Z)-1-(4-ethoxyphenyl)-2-(3,5-dimethoxyphenyl)-ethene]	Ant	N.M	–	–	–
COc1cc(/C=C/c2ccc(F)cc2)cc(OC)c1 [Compound 4f, (E)-1-(4-fluorophenyl)-2-(3,5-dimethoxyphenyl)-ethene]	–	–	Ant	N.M	–
FC(F)(F)c1ccc(/C=C/c2cc(C(F)(F)F)cc(C(F)(F)F)c2)cc1 [Compound 4e, (E)-1-(4-trifluoromethylphenyl)-2-(3,5-ditrifluoromethylphenyl)-ethene]	–	–	Ant	N.M	99 to 100 °C
Clc1ccc(/C=C/c2cc(Cl)cc(Cl)c2)cc1 [Compound 4b, (E)-1-(4-chlorophenyl)-2-(3,5-dichlorophenyl)-ethene]	–	–	Ant	N.M	–
COc1ccc(/C=C\c2cc(Cl)cc(Cl)c2)cc1 [Compound 5j, (Z)-1-(4-methoxyphenyl)-2-(3,5-dichlorophenyl)-ethene]	Ant	N.M	–	–	–
COc1ccc(/C=C/c2cc(Cl)cc(Cl)c2)cc1 [Compound 4j, (E)-1-(4-methoxyphenyl)-2-(3,5-dichlorophenyl)-ethene]	–	–	Ant	N.M.	62 to 64 °C
COc1ccc(/C=C/c2cc(OC)cc(OC)c2)cc1 [Compound 4a, (E)-1-(4-methoxyphenyl)-2-(3,5-dimethoxyphenyl)-ethene]	–	–	Ant	Ago	–
Clc1ccc(/C=C\c2cc(Cl)cc(Cl)c2)cc1 [Compound 5b, (Z)-1-(4-chlorophenyl)-2-(3,5-dichlorophenyl)-ethene]	Ant	N.M	–	–	–
FC(F)(F)c1ccc(/C=C\c2cc(Cl)cc(Cl)c2)cc1 [Compound 5i, (Z)-1-(4-trifluoromethylphenyl)-2-(3,5-dichlorophenyl)-ethene]	Ant	N.M	–	–	–
Fc1ccc(/C=C/c2cc(F)cc(F)c2)cc1 [Compound 4d, (E)-1-(4-fluorophenyl)-2-(3,5-difluorophenyl)-ethene]	–	–	Ant	N.M	47 to 48 °C and 47 °C
FC(F)(F)c1ccc(/C=C/c2cc(Cl)cc(Cl)c2)cc1 [Compound 4i, (E)-1-(4-trifluoromethylphenyl)-2-(3,5-dichlorophenyl)-ethene]	–	–	Ago	N.M.	98 to 100 °C
COc1ccc(/C=C/c2cc(F)cc(F)c2)cc1 [Compound 4c, (E)-1-(4-methoxyphenyl)-2-(3,5-difluorophenyl)-ethene]	–	–	Ant	N.M	108 to 110 °C
COc1cc(/C=C\c2ccc(F)cc2)cc(OC)c1 [Compound 5f, (Z)-1-(4-fluorophenyl)-2-(3,5-dimethoxyphenyl)-ethene]	Ant	N.M	–	–	–
CCOc1ccc(/C=C/c2cc(OC)cc(OC)c2)cc1 [Compound 4g, (E)-1-(4-ethoxyphenyl)-2-(3,5-dimethoxyphenyl)-ethene]	–	–	Ant	N.M.	54 to 55 °C
COc1ccc(/C=C\c2cc(OC)cc(OC)c2)cc1 [Compound 5a, (Z)-1-(4-methoxyphenyl)-2-(3,5-dimethoxyphenyl)-ethene]	Ant	Ago	–	–	–
FC(F)(F)c1ccc(/C=C\c2cc(C(F)(F)F)cc(C(F)(F)F)c2)cc1 [Compound 5e, (Z)-1-(4-trifluoromethylphenyl)-2-(3,5-ditrifluoromethylphenyl)-ethene]	Ant	N.M	–	–	–
COc1ccc(/C=C\c2cc(F)cc(F)c2)cc1 [Compound 5c, (Z)-1-(4-methoxyphenyl)-2-(3,5-difluorophenyl)-ethene]	Ant	N.M	–	–	–
CCCCOc1ccc(/C=C\c2cc(OC)cc(OC)c2)cc1 [Compound 5h, (Z)-1-(4-butoxyphenyl)-2-(3,5-dimethoxyphenyl)-ethene]	Ant	N.M	–	–	–
CCCCOc1ccc(/C=C/c2cc(OC)cc(OC)c2)cc1 [Compound 4h, (E)-1-(4-butoxyphenyl)-2-(3,5-dimethoxyphenyl)-ethene]	–	–	Ant	N.M.	54 to 56 °C
Fc1ccc(/C=C\c2cc(F)cc(F)c2)cc1 [Compound 5d, (Z)-1-(4-fluorophenyl)-2-(3,5-difluorophenyl)-ethene]	Ant	N.M	–	–	–
